{"source": "patent US10494597B2", "about": "“Contamination mitigation” (Butamax Advanced Biofuels LLC, priority 2014, dated 2019)", "key": {"[1]": {"system": "cell inoculum (shake flask culture)", "assay": "Shake flask culture with crude COFA with or without BHT, YSI glucose measurements", "assay_type": "cell-based", "details": "BHT 0 wt % (control) to 5 wt % in crude COFA; 50% v/v COFA; 40 g/L glucose synthetic medium; 30° C., 260 rpm", "experimental": "In an experimental example, a cell inoculum originated from a 72 hour seed flask with a 30 g/L synthetic medium. The culture was inoculated into 40 g/L glucose in synthetic medium. […] The flasks were incubated in a thirty degree Celsius (30° C.), 260 revolutions per minute (rpm) shaker. One to one point five milliliter (1-1.5) mL samples were taken at points in time."}, "[2]": {"system": "yeast (e.g., Saccharomyces)", "details": "at comparable concentrations; cited from earlier work"}, "[3]": {"system": "gram-positive and gram-negative bacteria (e.g., lactobacillus)", "details": "cited from earlier work"}}}
{"molecule": "Cc1cc(C(C)(C)C)c(O)c(C(C)(C)C)c1", "note": "[BHT, butylated hydroxytoluene]", "values": [{"measurement": "glucose consumption", "setting": "[1]", "value": "No difference in glucose consumption was observed"}, {"measurement": "effect on yeast", "setting": "[2]", "value": "does not affect yeast"}, {"measurement": "antimicrobial activity to gram-positive and gram-negative bacteria", "setting": "[3]", "value": "exhibits antimicrobial activity"}]}
